These results are taken from patent publication US20240366571A1, “MODULATORS OF SK4 POTASSIUM CHANNEL AND USES THEREOF” (Ramot at Tel-Aviv University Ltd., priority 2022, published 2024).

“Also recorded” adds a separate entry of the source.

The target in one assay is T1, human SK3 (Homo sapiens, UniProt Q9UGI6).
T1 construct: expressed in transfected cells; host or cells: CHO cells
In words: Whole-cell patch-clamp of SK3 currents in CHO cells. The format is cell-based. Particulars: 20 μM. The procedure: (§1) Constructs: For CHO cell transfection, the following were cloned: human SK1, rat SK2, human SK3, and rat calmodulin into the pcDNA3 vector, human SK4 into pEGFP-C1 vector, and PIP4,5-kinase into an IRES-dsRed plasmid. The mutations were introduced using the PCR-based QuikChange™ site-directed mutagenesis (Stratagene®) and were verified by full sequencing of the entire plasmid vector.
Cell Culture and Transfection: Chinese hamster ovary (CHO) cells were grown in Dulbecco's modified Eagle's medium supplemented with 2 millimolar (mM) glutamine, 10% fetal calf serum, and antibiotics. In brief, 40,000 cells seeded on poly-L-lysine-coated glass coverslips (13 millimeter (mm) in diameter) in a 24-multiwell plate were transfected with 0.5 microgram (μg) pEGFP-SK4/0.5 μg mutant SK4, 1.2 μg dsRed-PIP4,5-kinase or with 1 μg SK1/SK2/SK3 together with pIRES-CD8 (0.3 μg) as a marker for transfection. […]
Whole-cell patch-clamp recording: Voltage-clamp recordings were performed using the whole-cell configuration of the patch-clamp technique. […] The intracellular pipette solution contained 130 mM KCl, 5 mM EGTA, 10 mM HEPES, pH 7.3 (adjusted with KOH), and CaCl2 calculated for a final concentration of 1 μM free-Ca^2+, by MAXCHELATOR (WEBMAXC STANDARD) software, with sucrose added to adjust osmolarity to 290 mosM. […]

The next assay addresses T2, human SK1 (Homo sapiens, UniProt Q92952).
T2 construct: expressed in transfected cells; host or cells: CHO cells
The experiment in a line: Whole-cell patch-clamp of SK1 currents in CHO cells. The following applies: 20 μM. It counts as cell-based. The procedure:
as §1
Cell Culture and Transfection: Chinese hamster ovary (CHO) cells were grown in Dulbecco's modified Eagle's medium supplemented with 2 millimolar (mM) glutamine, 10% fetal calf serum, and antibiotics. In brief, 40,000 cells seeded on poly-L-lysine-coated glass coverslips (13 millimeter (mm) in diameter) in a 24-multiwell plate were transfected with 0.5 microgram (μg) pEGFP-SK4/0.5 μg mutant SK4, 1.2 μg dsRed-PIP4,5-kinase or with 1 μg SK1/SK2/SK3 together with pIRES-CD8 (0.3 μg) as a marker for transfection. Transfection was performed using TransIT-LT1 Transfection Reagent (Mirus Bio) according to the manufacturer's protocol. For electrophysiology, transfected cells were visualized approximately 40 hours after transfection with a Zeiss Axiovert 35 inverted florescence microscope.
Whole-cell patch-clamp recording: Voltage-clamp recordings were performed using the whole-cell configuration of the patch-clamp technique. Signals were amplified using an […] patch-clamp amplifier (Molecular Devices), sampled at 5 kHz and filtered at 2.4 kHz via a four pole Bessel low pass filter. Data were acquired using pClamp™ 10.5 software in conjunction with an Axon™ DigiData® 1440A interface (Molecular Devices). The patch pipettes were pulled from borosilicate glass (Harvard Apparatus) with a resistance of 3-5 megaohms (MΩ). The intracellular pipette solution contained 130 mM KCl, 5 mM EGTA, 10 mM HEPES, pH 7.3 (adjusted with KOH), and CaCl2 calculated for a final concentration of 1 μM free-Ca^2+, by MAXCHELATOR (WEBMAXC STANDARD) software, with sucrose added to adjust osmolarity to 290 mosM. […]

Assay [1] concerns rat model of heart failure (HF) post-myocardial infarction (MI). In words: Rat model of heart failure post-myocardial infarction. It counts as in vivo. Particulars: vs vehicle. How it is done:
[…] Experimental setup and details are described, for example, in Murninkas et al. Am J Physiol-Heart Circul Physiol. (2021), 320, H713-H24.
Following electrode implantation and animal recovery, baseline EP (electrophysiological) measurements were performed followed by random division of the animals to treatment with the exemplary compound vs. treatment with vehicle.
Masson-trichrome staining: staining was performed according to a standard procedure, as described, for example, in N. Foot, Stain Technology (2009), Volume 8, 1933—Issue 3, 101-110.

Where [2] appears, read: 20 mg/kg daily for 2 weeks from one week post-MI.

`CCCCCCCn1c(=O)oc2ccccc21` [BA6b9, 3-heptylbenzo[d]oxazol-2(3H)-one]: on human SK3, the “SK3 activity in comparison with control” value is 95% and the “SK3 drug-to-control current ratio” value turned out to be 0.95. Besides, at human SK1, the “SK1 activity in comparison with control” value came to 118%, the “SK1 drug-to-control current ratio” value amounted to 1.18 and the “effect on SK1 currents (representative trace)” value was “nearly nullified effect; also recorded: did not lead to modulation”. Further, in assay [1] (setting [2]), the AF induction result was “markedly attenuates”, the “EF (ejection fraction)” value is given as “does not affect” and the “total AF duration” value is recorded as “markedly attenuates”. Also, in assay [1] (Masson-trichrome staining after post-MI treatment), the LA fibrosis result was “reduction”. For the same compound, in assay [1] (after post-MI treatment), the “LA smooth muscle actin (SMA)” value was “reduction”.
